ChEMBL document CHEMBL5257089, “Gamabufotalin Induces Apoptosis and Cytoprotective Autophagy through the mTOR Signaling Pathway in Hepatocellular Carcinoma” (J Nat Prod, 2023)
Calls of active or inactive are those of the source. The calls are words filed in the database; no cut-off is given here.

Columns and labels:
Hep 3B2 [1] = test: Induction of autophagic flux in human Hep3B cells assessed as rescue of p62 at 10 uM incubated for 48 hrs in presence of gamabufotalin by Western blot analysis; format: functional, cell-based
Hep 3B2 [2] = test: Induction of apoptosis in human Hep3B cells assessed as necrotic cells at 10 nM incubated for 48 hrs by Annexin V-FITC/PI staining based flow cytometry method (reference value: 1.2%); format: functional
Huh-7 [3] = test: Induction of autophagic flux in human Huh-7 cells assessed as rescue of LC3-II accumulation at 10 uM incubated for 48 hrs in presence of gamabufotalin by Western blot analysis; format: functional, cell-based
Huh-7 [4] = test: Induction of apoptosis in human Huh-7 cells assessed as viable cells at 10 nM incubated for 48 hrs by Annexin V-FITC/PI staining based flow cytometry method (reference value: 91.5%); format: functional; conditions: read-out: Activity
Huh-7 [5] = test: Induction of apoptosis in human Huh-7 cells assessed as increase in cleaved PARP level at 10 nM incubated for 48 hrs in presence of gamabufotalin by immunoblot analysis; format: functional, cell-based
Huh-7 [6] = test: Induction of apoptosis in human Huh-7 cells assessed as necrotic cells at 10 nM incubated for 48 hrs in presence of gamabufotalin by Annexin V-FITC/PI staining based flow cytometry method (reference value: 1.0%); format: functional
Hep 3B2 [7] = test: Induction of apoptosis in human Hep3B cells assessed as viable cells at 25 nM measured after 48 hrs in presence of Z-VAD-FMK by annexin V-FITC/Propidium iodide staining based flow cytometric analysis (reference value: 95.6%); format: functional; conditions: read-out: Activity
Hep 3B2 [8] = test: Induction of apoptosis in human Hep3B cells assessed as viable cells at 25 nM incubated for 48 hrs in presence of 4,6-dimorpholino-N-(4-nitrophenyl)-1,3,5-triazin-2-amine by Annexin V-FITC/PI staining based flow cytometry method (Rvb =95.7%); format: functional; conditions: read-out: Activity
Huh-7 [9] = test: Induction of apoptosis in human Huh-7 cells assessed as necrotic cells at 20 nM incubated for 48 hrs by Annexin V-FITC/PI staining based flow cytometry method (reference value: 95.4%); format: functional
Hep 3B2 [10] = test: Induction of apoptosis in human Hep3B cells assessed as upregulation of caspase-3 level […] incubated for 48 hrs in presence of 4,6-dimorpholino-N-(4-nitrophenyl)-1,3,5-triazin-2-amine by immunoblot analysis; format: functional, cell-based
Hep 3B2 [11] = test: Induction of apoptosis in human Hep3B cells assessed as late apoptotic cells at 25 nM incubated for 48 hrs by Annexin V-FITC/PI staining based flow cytometry method (reference value: 2.2%); format: functional
Hep 3B2 [12] = test: Induction of apoptosis in human Hep3B cells assessed as viable cells at 25 nM incubated for 48 hrs in presence of chloroquine by Annexin V-FITC/PI staining based flow cytometry method (reference value: 94.0%); format: functional; conditions: read-out: Activity
[13] = Toxicity in mouse assessed as effect on serum ALT level at 5 mg/kg,ip administered every second day for 3 weeks by H and E staining based microscopic method; format: organism-based; conditions: in vivo, 504 h
Hep 3B2 [14] = test: Induction of apoptosis in human Hep3B cells assessed as early apoptotic cells at 25 nM measured after 48 hrs in presence of Z-VAD-FMK by annexin V-FITC/Propidium iodide staining based flow cytometric analysis (reference value: 1.6%); format: functional
Huh-7 [15] = test: Induction of autophagy in human Huh-7 cells assessed as rescue of ULK1 phosphorylation level at upto 25 nM incubated for 48 hrs in presence of chloroquine by immunoblot method; format: functional, cell-based
Hep 3B2 [16] = test: Induction of autophagic flux in human Hep3B cells assessed as rescue of p62 at 25 uM incubated for 48 hrs in presence of chloroquine by Western blot analysis; format: functional, cell-based
Hep 3B2 [17] = test: Induction of apoptosis in human Hep3B cells assessed as reduction in bcl-2 level […] incubated for 48 hrs in presence of 4,6-dimorpholino-N-(4-nitrophenyl)-1,3,5-triazin-2-amine by immunoblot analysis; format: functional, cell-based
Huh-7 [18] = test: Induction of apoptosis in human Huh-7 cells assessed as early apoptotic cells at 25 nM measured after 48 hrs in presence of z-VAD-FMK by annexin V-FITC/Propidium iodide staining based flow cytometric analysis (reference value: 2.2%); format: functional
Hep 3B2 [19] = test: Induction of apoptosis in human Hep3B cells assessed as early apoptotic cells at 15 nM incubated for 48 hrs by Annexin V-FITC/PI staining based flow cytometry method (reference value: 3.9%); format: functional
Hep 3B2 [20] = test: Induction of apoptosis in human Hep3B cells assessed as necrotic cells at 25 nM incubated for 48 hrs in presence of chloroquine by Annexin V-FITC/PI staining based flow cytometry method (reference value: 1.2%); format: functional
Huh-7 [21] = test: Induction of apoptosis in human Huh-7 cells assessed as late apoptotic cells at 25 nM measured after 48 hrs by annexin V-FITC/Propidium iodide staining based flow cytometric analysis (reference value: 6.1%); format: functional
Huh-7 [22] = test: Induction of apoptosis in human Huh-7 cells assessed as increase in PARP expression at upto 25 nM incubated for 48 hrs by Western blot analysis; format: functional, cell-based
[23] = Toxicity in mouse assessed as effect on body weight at 5 mg/kg,ip administered every second day for 3 weeks; format: organism-based; conditions: in vivo, 504 h
Hep 3B2 [24] = test: Antitumor activity against human Hep3B cells xenografted in nude mouse model assessed as upregulation of bax expression at 5 mg/kg,ip administered every second day for 3 weeks by Western blot analysis; format: functional, organism-based
Hep 3B2 [25] = test: Induction of autophagic flux in human Hep3B cells harbouring mCherry-egfp-LC3 assessed as increase in yellow puncta at 25 nM incubated for 15 mins by laser scanning confocal microscopic analysis; format: functional, cell-based
Huh-7 [26] = test: Induction of autophagic flux in human Huh-7 cells harbouring mCherry-egfp-LC3 assessed as reduction in number of red puncta ratio at 25 nM incubated for 15 mins in presence of chloroquine by laser scanning confocal microscopic analysis; format: functional, cell-based
Hep 3B2 [27] = test: Induction of autophagy in human Hep3B cells assessed as restoration of ULK1 phosphorylation expression at 25 uM incubated for 48 hrs in presence of 4,6-dimorpholino-N-(4-nitrophenyl)-1,3,5-triazin-2-amine by immunoblot analysis; format: functional, cell-based
Huh-7 [28] = test: Induction of apoptosis in human Huh-7 cells assessed as late apoptotic cells at 20 nM incubated for 48 hrs by Annexin V-FITC/PI staining based flow cytometry method (reference value: 2.2%); format: functional
Huh-7 [29] = test: Induction of apoptosis in human Huh-7 cells assessed as increase in cleaved caspase-3 expression at upto 25 nM incubated for 48 hrs by Western blot analysis; format: functional, cell-based
Hep 3B2 [30] = test: Antitumor activity against human Hep3B cells xenografted in nude mouse model assessed as decrease in tumor weight at 5 mg/kg,ip administered every second day for 3 weeks by vernier caliper method; format: functional, organism-based
Huh-7 [31] = test: Induction of autophagic flux in human Huh-7 cells harbouring mCherry-egfp-LC3 assessed as increase in yellow puncta at 25 nM incubated for 15 mins by laser scanning confocal microscopic analysis; format: functional, cell-based
Hep 3B2 [32] = test: Antitumor activity against human Hep3B cells xenografted in nude mouse model assessed as downregulation of Bcl-2 expression at 5 mg/kg,ip administered every second day for 3 weeks by Western blot analysis; format: functional, organism-based

For `CCN(CC)CCCC(C)Nc1ccnc2cc(Cl)ccc12` (configuration not stated) [CHLOROQUINE], the Activity (Hep 3B2 [1]) was “Active”, the Activity (Hep 3B2 [2]) was 0.4% and the Activity (Huh-7 [3]) was “Active”. The viability at 0.01 µM (Huh-7 [4]) was 90.3%, the Activity (Huh-7 [5]) was “Active” and the Activity (Huh-7 [6]) was 3.4%.

With `C[C@]12CC[C@H](O)C[C@H]1CC[C@@H]1[C@@H]2[C@H](O)C[C@]2(C)[C@@H](c3ccc(=O)oc3)CC[C@]12O` [GAMABUFOTALIN] the viability at 0.025 µM (Hep 3B2 [7]) was 91.9%, the viability at 0.025 µM (Hep 3B2 [8]) was 67.2% and the Activity (Huh-7 [9]) was 60.8%. The Activity (Hep 3B2 [10]) was “Active”, the Activity (Hep 3B2 [11]) was 10.9% and the viability at 0.025 µM (Hep 3B2 [12]) was 63.9%. The Activity [13] was “Non-Toxic”, the Activity (Hep 3B2 [14]) was 4.4% and the Activity (Huh-7 [15]) was “Active”. For the same compound, the Activity (Hep 3B2 [16]) was “Active”, the Activity (Hep 3B2 [17]) was “Active” and the Activity (Huh-7 [18]) was 3.3%. The Activity (Hep 3B2 [19]) was 6.8%, the Activity (Hep 3B2 [20]) was 0.8% and the Activity (Huh-7 [21]) was 20.3%. For the same compound, the Activity (Huh-7 [22]) was “Active”, the Activity [23] was “Non-Toxic” and the Activity (Hep 3B2 [24]) was “Active”. For the same compound, the Activity (Hep 3B2 [25]) was “Active”, the Activity (Huh-7 [26]) was “Active” and the Activity (Hep 3B2 [27]) was “Active”. For the same compound, the Activity (Huh-7 [28]) was 28.8%, the Activity (Huh-7 [29]) was “Active” and the Activity (Hep 3B2 [30]) was “Active”. The Activity (Huh-7 [31]) was “Active” and the Activity (Hep 3B2 [32]) was “Active”.
